From US20200071316A1, “ACTIVATORS OF THE RETINOIC ACID INDUCIBLE GENE "RIG-I" PATHWAY AND METHODS OF USE THEREOF” (Kineta Immuno-Oncology LLC, priority 2018, published 2020)
Marks after values point to notes of the source that are not given here.

Tests used:
[1] = system: IRF3 signaling pathway (IRF-inducible ISG54 promotor) in THP1-Lucia ISG cells; assay: THP1-Lucia ISG reporter assay: induction of IRF3-dependent luciferase activity; format: cell-based; conditions: Homo sapiens, PMA-differentiated cells, 18 h after stimulation, read-out: THP1 ISG: fold increase of IRF3-dependent luciferase activity over background; for fold induction at 10 µM: 10 μM compound
In short: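 PMA-differentiated (100 ng/ml) reporter cells, parental and IRF3−/−, stimulated with compounds at 5–20 μM (mostly 10 μM). Secreted luciferase measured 18 h later. Scored as fold increase over untreated background in bands from "−" (<2.4-fold) to "+++++" (≥40-fold).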

[2] = system: THP1-Lucia ISG IRF3 −/− cells; assay: IRF3-deficient THP1-Lucia ISG IRF3 −/− reporter assay (counter-screen); format: cell-based; conditions: Homo sapiens, 18 h after stimulation, read-out: THP1 ISG IRF3 −/−: fold increase of luciferase activity over background; for fold induction at 5 µM: 5 μM compound (**); for fold induction at 10 µM: 10 μM compound
In short: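 PMA-differentiated (100 ng/ml) reporter cells carrying ISRE/ISG54 minimal promoter-driven secreted luciferase were stimulated with compounds at 5–20 μM (mostly 10 μM). Luciferase measured 18 h later and expressed as fold increase over untreated background, binned from "−" (<2.4-fold) to "+++++" (≥40-fold).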

[3] = system: CXCL10 secretion by CT26 cells; assay: RIG-I dependent CXCL10 secretion by CT26 colon carcinoma cells (ELISA); format: cell-based, murine; conditions: 24 h
In short: (§1)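 Murine CT26 colon carcinoma cells, and CRISPR-generated RIG-I knockout CT26 cells, were seeded at 1×10^4 cells/well and grown 24 h at 37 °C, 5% CO2, then treated with compounds at 5 to 20 μM. CXCL10 in supernatants was measured by ELISA 24 h after stimulation.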

[4] = system: RIG-I deficient CT26 RIG-1−/− cells; assay: CXCL10 secretion in RIG-I deficient CT26 RIG-1−/− cells (ELISA); format: cell-based, murine; conditions: 24 h
In short: as §1

Structure (SMILES)	fold induction at 5 µM ([1]; 5 μM compound (**))	fold induction at 5 µM [2]	CXCL10 secretion by CT26 cells ([3]; 10 μM compound)	CXCL10 secretion by CT26 RIG-I −/− cells ([4]; 10 μM compound)	fold induction at 20 µM ([1]; 20 μM compound (*))	CXCL10 secretion by CT26 cells ([3]; 20 μM compound (*))	CXCL10 secretion by CT26 RIG-I −/− cells ([4]; 20 μM compound (*))	fold induction at 10 µM [1]	fold induction at 10 µM [2]	CXCL10 secretion by CT26 cells ([3]; 5 μM compound (**))	CXCL10 secretion by CT26 RIG-I −/− cells ([4]; 5 μM compound (**))
NS(=O)(=O)c1ccc2nc(NC(=O)c3cc4ccccc4cc3OCCCCN3CCOCC3)sc2c1 [Example 32, 3-[4-(morpholin-4-yl)butoxy]-N-(6-sulfamoyl-1,3-benzothiazol-2-yl)naphthalene-2-carboxamide]	5 to 9.9	< 2.4	++++ (“++++” indicates 800 to 1599 pg/mL)	− (“−” indicates less than 100 pg/mL)							
N#Cc1ccc2nc(NC(=O)c3cc4ccccc4cc3OCCCCN3CCOCC3)sc2c1 [Example 25, N-(6-cyano-1,3-benzothiazol-2-yl)-3-[4-(morpholin-4-yl)butoxy]naphthalene-2-carboxamide]		< 2.4			2.4 to 4.9	+* (“+” indicates 100-199 pg/mL)	−* (“−” indicates less than 100 pg/mL)				
O=C(Nc1cc2ccc(S(=O)(=O)N3CCCC3)cc2s1)c1cc2c(cc1OCCCCN1CCOCC1)OCO2 [Example 73, 6-[4-(morpholin-4-yl)butoxy]-N-[6-(pyrrolidine-1-sulfonyl)-1-benzothiophen-2-yl]-2H-1,3-benzodioxole-5-carboxamide]			++++ (“++++” indicates 800 to 1599 pg/mL)	− (“−” indicates less than 100 pg/mL)				20 to 39	< 2.4		
O=C(Nc1cc2ccc(S(=O)(=O)N3CCCC3)cc2s1)c1cc2ccsc2cc1OCCCCN1CCOCC1 [Example 72, 6-[4-(morpholin-4-yl)butoxy]-N-[6-(pyrrolidine-1-sulfonyl)-1-benzothiophen-2-yl]-1-benzothiophene-5-carboxamide]			++++ (“++++” indicates 800 to 1599 pg/mL)	− (“−” indicates less than 100 pg/mL)				20 to 39	< 2.4		
Cn1ccc2cc(OCCN3CCOCC3)c(C(=O)Nc3nc4ccc(S(=O)(=O)N5CCCC5)cc4s3)cc21 [Example 67, 1-methyl-5-[2-(morpholin-4-yl)ethoxy]-N-[6-(pyrrolidine-1-sulfonyl)-1,3-benzothiazol-2-yl]-1H-indole-6-carboxamide]			++++ (“++++” indicates 800 to 1599 pg/mL)	− (“−” indicates less than 100 pg/mL)				20 to 39	< 2.4		
O=C(Nc1nc2ccc(S(=O)(=O)N3CCCCC3)cc2s1)c1cc2ccccc2cc1OCCN1CCOCC1 [Example 37, 3-[2-(morpholin-4-yl)ethoxy]-N-[6-(piperidine-1-sulfonyl)-1,3-benzothiazol-2-yl]naphthalene-2-carboxamide]			+++ (“+++” indicates 400-799 pg/mL)	− (“−” indicates less than 100 pg/mL)				10 to 19	< 2.4		
O=C(Nc1nc2ccc(-c3nc4ccccc4[nH]3)cc2s1)c1ccc2ccccc2c1 [Example 10, N-[6-(1H-1,3-benzodiazol-2-yl)-1,3-benzothiazol-2-yl]naphthalene-2-carboxamide]			+++ (“+++” indicates 400-799 pg/mL)	− (“−” indicates less than 100 pg/mL)				5 to 9.9	< 2.4		
O=C(Nc1ccc2nc(NC(=O)c3ccc4ccccc4c3)sc2c1)c1ccccc1 [Example 6, N-(6-benzamido-1,3-benzothiazol-2-yl)naphthalene-2-carboxamide]			++ (“++” indicates 200-399 pg/mL)	− (“−” indicates less than 100 pg/mL)				20 to 39	< 2.4		
O=C(Nc1nc2ccc(S(=O)(=O)N3CC4(COC4)C3)cc2s1)c1cc2ccccc2cc1OCCCCN1CCOCC1 [Example 55, 3-[4-(morpholin-4-yl)butoxy]-N-(6-{2-oxa-6-azaspiro[3.3]heptane-6-sulfonyl}-1,3-benzothiazol-2-yl)naphthalene-2-carboxamide]			++ (“++” indicates 200-399 pg/mL)	− (“−” indicates less than 100 pg/mL)				2.4 to 4.9	< 2.4		
O=C(Nc1nc2ccc(OCC(F)(F)F)cc2s1)c1ccc2ccccc2c1 [Example 5, N-[6-(2,2,2-trifluoroethoxy)-1,3-benzothiazol-2-yl]naphthalene-2-carboxamide]			+++ (“+++” indicates 400-799 pg/mL)	− (“−” indicates less than 100 pg/mL)				2.4 to 4.9	< 2.4		
O=C(Nc1nc2ccc(S(=O)(=O)N3CCC3)cc2s1)c1cc2ccsc2cc1OCCCCN1CCOCC1 [Example 63, N-[6-(azetidine-1-sulfonyl)-1,3-benzothiazol-2-yl]-6-[4-(morpholin-4-yl)butoxy]-1-benzothiophene-5-carboxamide]			+ (“+” indicates 100-199 pg/mL)	− (“−” indicates less than 100 pg/mL)				2.4 to 4.9	< 2.4		
N#Cc1ccc2nc(NC(=O)c3cc4ccccc4cc3OCCN3CCOCC3)sc2c1 [Example 24, N-(6-cyano-1,3-benzothiazol-2-yl)-3-[2-(morpholin-4-yl)ethoxy]naphthalene-2-carboxamide]			− (“−” indicates less than 100 pg/mL)	− (“−” indicates less than 100 pg/mL)				5 to 9.9	< 2.4		
O=C(Nc1nc2cccc(NC(=S)Nc3ccccc3)c2s1)c1cc2ccccc2cc1OCCCCN1CCOCC1 [Example 33, 3-[4-(morpholin-4-yl)butoxy]-N-{7-[(phenylcarbamothioyl)amino]-1,3-benzothiazol-2-yl}naphthalene-2-carboxamide]								2.4 to 4.9	< 2.4	++** (“++” indicates 200-399 pg/mL)	−** (“−” indicates less than 100 pg/mL)
O=C(Nc1nc2ccc(S(=O)(=O)N3CCC3)cc2s1)c1cc2ccccc2cc1OCCN1CCOCC1 [Example 35, N-[6-(azetidine-1-sulfonyl)-1,3-benzothiazol-2-yl]-3-[2-(morpholin-4-yl)ethoxy]naphthalene-2-carboxamide]			+ (“+” indicates 100-199 pg/mL)	− (“−” indicates less than 100 pg/mL)				20 to 39	< 2.4		
O=C(Nc1nc2ccc(S(=O)(=O)N3CCCC3)cc2s1)c1cc2ccccc2cc1OCCCCN1CCC(F)(F)CC1 [Example 80, 3-[4-(4,4-difluoropiperidin-1-yl)butoxy]-N-[6-(pyrrolidine-1-sulfonyl)-1,3-benzothiazol-2-yl]naphthalene-2-carboxamide]			++++ (“++++” indicates 800 to 1599 pg/mL)	− (“−” indicates less than 100 pg/mL)				20 to 39	< 2.4		
CS(=O)(=O)c1ccc2nc(NC(=O)c3cc4ccccc4cc3OCCN3CCOCC3)sc2c1 [Example 44, N-(6-methanesulfonyl-1,3-benzothiazol-2-yl)-3-[2-(morpholin-4-yl)ethoxy]naphthalene-2-carboxamide]								< 2.4	< 2.4	++** (“++” indicates 200-399 pg/mL)	−** (“−” indicates less than 100 pg/mL)
O=C(Nc1nc2ccc(Cc3ccccc3)cc2s1)c1cc2ccccc2cc1OCCN1CCOCC1 [Example 18, N-(6-benzyl-1,3-benzothiazol-2-yl)-3-[2-(morpholin-4-yl)ethoxy]naphthalene-2-carboxamide]			+ (“+” indicates 100-199 pg/mL)	− (“−” indicates less than 100 pg/mL)				2.4 to 4.9	< 2.4		
O=C(Nc1nc2ccc(S(=O)(=O)N3CCCC3)cc2s1)c1cc2ccccc2cc1OCCN1CCOCC1 [Example 29, 3-[2-(morpholin-4-yl)ethoxy]-N-[6-(pyrrolidine-1-sulfonyl)-1,3-benzothiazol-2-yl]naphthalene-2-carboxamide]			++++ (“++++” indicates 800 to 1599 pg/mL)	− (“−” indicates less than 100 pg/mL)				≥ 40	< 2.4		
CS(=O)(=O)c1ccc2nc(NC(=O)c3ccc4ccccc4c3)sc2c1 [Example 1, N-(6-methanesulfonyl-1,3-benzothiazol-2-yl)naphthalene-2-carboxamide]			++++ (“++++” indicates 800 to 1599 pg/mL)	− (“−” indicates less than 100 pg/mL)				10 to 19	< 2.4		
